Source: patent publication US10780090B2, “Heteroaryl compounds useful as inhibitors of SUMO activating enzyme” (Millennium Pharmaceuticals, Inc., priority 2014, dated 2020)
Like-named read-outs stand apart in the source and are kept apart here.

Molecular target: recombinant human SAE enzyme (Homo sapiens (Human), UniProt Q9UBT2)
Experiment: SAE HTRF enzyme assay
Format: biochemical
Conditions: for inhibition at 0.111 µM: read-out: Percent Inhibition
In short: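 HTRF read-out using Eu-cryptate anti-Flag and allophycocyanin anti-GST antibodies, added with EDTA stop buffer and read after 2 h at 24 °C. The preceding reaction ran 105 min at 24 °C: 0.11 nM recombinant SAE, 0.5 μM ATP, Sumo-Flag, Ubc9-GST, pH 7.5. Values given as single-concentration inhibition or IC50.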

[1] = SAE inhibition at compound concentration 0.111 μM
[2] = SAE inhibition, class symbols, legend in nM

Chain of recombinant human SAE enzyme (Q9UBT2 whole entry): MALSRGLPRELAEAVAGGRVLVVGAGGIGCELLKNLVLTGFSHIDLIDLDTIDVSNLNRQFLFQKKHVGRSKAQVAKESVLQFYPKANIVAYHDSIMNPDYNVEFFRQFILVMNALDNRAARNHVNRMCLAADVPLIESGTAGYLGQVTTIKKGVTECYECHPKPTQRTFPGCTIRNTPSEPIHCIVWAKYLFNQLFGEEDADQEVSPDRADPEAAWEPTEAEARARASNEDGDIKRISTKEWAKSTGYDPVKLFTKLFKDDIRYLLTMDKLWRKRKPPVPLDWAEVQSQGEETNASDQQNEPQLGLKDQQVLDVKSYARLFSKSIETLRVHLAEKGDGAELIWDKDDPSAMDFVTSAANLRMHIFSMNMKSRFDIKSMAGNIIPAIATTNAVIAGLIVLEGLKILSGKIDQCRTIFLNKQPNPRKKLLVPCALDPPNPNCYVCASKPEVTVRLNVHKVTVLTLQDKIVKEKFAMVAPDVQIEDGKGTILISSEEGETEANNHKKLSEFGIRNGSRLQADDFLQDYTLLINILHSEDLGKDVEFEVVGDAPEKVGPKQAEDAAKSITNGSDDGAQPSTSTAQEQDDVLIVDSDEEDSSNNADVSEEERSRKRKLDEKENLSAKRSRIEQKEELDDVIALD
Chain of recombinant human SAE enzyme (Q9UBE0 whole entry partner): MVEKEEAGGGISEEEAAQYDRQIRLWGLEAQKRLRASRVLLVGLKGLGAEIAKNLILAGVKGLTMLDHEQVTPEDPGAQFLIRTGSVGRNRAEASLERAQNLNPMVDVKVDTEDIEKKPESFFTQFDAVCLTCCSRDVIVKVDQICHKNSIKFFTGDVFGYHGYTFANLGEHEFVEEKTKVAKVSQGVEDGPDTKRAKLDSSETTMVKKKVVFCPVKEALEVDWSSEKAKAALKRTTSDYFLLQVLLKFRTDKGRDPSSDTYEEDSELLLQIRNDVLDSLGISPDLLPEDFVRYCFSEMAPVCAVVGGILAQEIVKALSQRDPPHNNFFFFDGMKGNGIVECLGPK

SMILES: Cc1sc(C(=O)c2cncnc2N[C@@H]2C[C@H](COS(N)(=O)=O)[C@@H](O)C2)cc1Cn1cc(Br)cn1 [I-39, [(1R,2S,4R)-4-{[5-({4-[(4-bromo-1H-pyrazol-1-yl)methyl]-5-methyl-2-thienyl}carbonyl)pyrimidin-4-yl]amino}-2-hydroxycyclopentyl]methyl sulfamate]
- inhibition at 0.111 µM (Concentration 0.111 μM): 98%

SMILES: Cc1sc(C(=O)c2cncnc2N[C@@H]2C[C@H](COS(N)(=O)=O)[C@@H](O)C2)cc1[C@H]1OCC(F)(F)c2ccc(Cl)nc21 (single isomer, unassigned) [I-260a, [(1R,2S,4R)-4-{[5-({4-[(8R)-2-chloro-5,5-difluoro-5,8-dihydro-6H-pyrano[3,4-b]pyridin-8-yl]-5-methyl-2-thienyl}carbonyl)pyrimidin-4-yl]amino}-2-hydroxycyclopentyl]methyl sulfamate or [(1R,2S,4R)-4-{[5-({4-[(8S)-2-chloro-5,5-difluoro-5,8-dihydro-6H-pyrano[3,4-b]pyridin-8-yl]-5-methyl-2-thienyl}carbonyl)pyrimidin-4-yl]amino}-2-hydroxycyclopentyl]methyl sulfamate]
- Percent Inhibition (Concentration 0.111 μM): 99
- IC50 (class symbols A/B/C): < 10 nM

SMILES: NS(=O)(=O)OC[C@H]1C[C@@H](Nc2ncncc2C(=O)c2cc([C@@H]3NCCc4ccc(Cl)cc43)c(Cl)o2)C[C@@H]1O (single isomer, unassigned) [I-299b, {(1R,2S,4R)-4-[(5-{5-chloro-4-[(1R)-7-chloro-1,2,3,4-tetrahydroisoquinolin-1-yl]-2-furoyl}pyrimidin-4-yl)amino]-2-hydroxycyclopentyl}methyl sulfamate or {(1R,2S,4R)-4-[(5-{5-chloro-4-[(1S)-7-chloro-1,2,3,4-tetrahydroisoquinolin-1-yl]-2-furoyl}pyrimidin-4-yl)amino]-2-hydroxycyclopentyl}methyl sulfamate]
- Percent Inhibition [1]: 93%
- IC50 [2]: < 10 nM

SMILES: COc1ccc(Cl)cc1[C@@H](O)c1cc(C(=O)c2cncnc2N[C@@H]2C[C@H](COS(N)(=O)=O)[C@@H](O)C2)sc1Cl (mixture of isomers) [I-63, [(1R,2S,4R)-4-{[5-({5-chloro-4-[(R)-(5-chloro-2-methoxyphenyl)(hydroxy)methyl]-2-thienyl}carbonyl)pyrimidin-4-yl]amino}-2-hydroxycyclopentyl]methyl sulfamate and [(1R,2S,4R)-4-{[5-({5-chloro-4-[(S)-(5-chloro-2-methoxyphenyl)(hydroxy)methyl]-2-thienyl}carbonyl)pyrimidin-4-yl]amino}-2-hydroxycyclopentyl]methyl sulfamate]
- Percent Inhibition (Concentration 0.111 μM): 97
- IC50 (class symbols A/B/C): < 10 nM

SMILES: NS(=O)(=O)OC[C@H]1C[C@@H](Nc2ncncc2C(=O)c2cc(COc3ccccc3OC(F)(F)F)cs2)C[C@@H]1O [I-176, [(1R,2S,4R)-2-hydroxy-4-({5-[(4-{[2-(trifluoromethoxy)phenoxy]methyl}-2-thienyl)carbonyl]pyrimidin-4-yl}amino)cyclopentyl]methyl sulfamate]
- inhibition at 0.111 µM (Concentration 0.111 μM): 87%
- IC50 (class symbols A/B/C): 10 to 100 nM

SMILES: NS(=O)(=O)OC[C@H]1C[C@@H](Nc2ncncc2C(=O)c2cc([S@+]([O-])c3cccc(C(F)(F)F)c3)c(Cl)s2)C[C@@H]1O (mixture of isomers) [I-122, [(1R,2S,4R)-4-({5-[(5-chloro-4-{(R)-[3-(trifluoromethyl)phenyl]sulfinyl}-2-thienyl)carbonyl]pyrimidin-4-yl}amino)-2-hydroxycyclopentyl]methyl sulfamate and [(1R,2S,4R)-4-({5-[(5-chloro-4-{(S)-[3-(trifluoromethyl)phenyl]sulfinyl}-2-thienyl)carbonyl]pyrimidin-4-yl}amino)-2-hydroxycyclopentyl]methyl sulfamate]
- Percent Inhibition (Concentration 0.111 μM): 98
- IC50 (class symbols A/B/C): < 10 nM

SMILES: N[C@H](c1cccc(Cl)c1)c1cc(C(=O)c2cncnc2N[C@@H]2C[C@H](COS(N)(=O)=O)[C@@H](O)C2)sc1Cl (single isomer, unassigned) [I-15a, [(1R,2S,4R)-4-{[5-({4-[(R)-amino(3-chlorophenyl)methyl]-5-chloro-2-thienyl}carbonyl)pyrimidin-4-yl]amino}-2-hydroxycyclopentyl]methyl sulfamate or [(1R,2S,4R)-4-{[5-({4-[(S)-amino(3-chlorophenyl)methyl]-5-chloro-2-thienyl}carbonyl)pyrimidin-4-yl]amino}-2-hydroxycyclopentyl]methyl sulfamate]
- Percent Inhibition (Concentration 0.111 μM): 66
- IC50 (class symbols A/B/C): 10 to 100 nM

SMILES: NS(=O)(=O)OC[C@H]1C[C@@H](Nc2ncncc2C(=O)c2cc([C@@H]3OCCc4ccc(Cl)cc43)c(Cl)s2)C[C@@H]1O (single isomer, unassigned) [I-282b, [(1R,2S,4R)-4-{[5-({5-chloro-4-[(1R)-7-chloro-3,4-dihydro-1H-isochromen-1-yl]-2-thienyl}carbonyl)pyrimidin-4-yl]amino}-2-hydroxycyclopentyl]methyl sulfamate or [(1R,2S,4R)-4-{[5-({5-chloro-4-[(1S)-7-chloro-3,4-dihydro-1H-isochromen-1-yl]-2-thienyl}carbonyl)pyrimidin-4-yl]amino}-2-hydroxycyclopentyl]methyl sulfamate]
- Percent Inhibition [1]: 102%
- IC50 [2]: < 10 nM

SMILES: NS(=O)(=O)OC[C@H]1C[C@@H](Nc2ncncc2C(=O)c2cc([C@H](O)c3cccc(Cl)c3)cs2)C[C@@H]1O (mixture of isomers) [I-4, [(1R,2S,4R)-4-{[5-({4-[(R)-(3-chlorophenyl)(hydroxy)methyl]-2-thienyl}carbonyl)pyrimidin-4-yl]amino}-2-hydroxycyclopentyl]methyl sulfamate and [(1R,2S,4R)-4-{[5-({4-[(S)-(3-chlorophenyl)(hydroxy)methyl]-2-thienyl}carbonyl)pyrimidin-4-yl]amino}-2-hydroxycyclopentyl]methyl sulfamate]
- Percent Inhibition (Concentration 0.111 μM): 99
- IC50 (class symbols A/B/C): < 10 nM

SMILES: NS(=O)(=O)OC[C@H]1C[C@@H](Nc2ncncc2C(=O)c2cc(Cn3ccc4ccccc43)cs2)C[C@@H]1O [I-114, {(1R,2S,4R)-2-hydroxy-4-[(5-{[4-(1H-indol-1-ylmethyl)-2-thienyl]carbonyl}pyrimidin-4-yl)amino]cyclopentyl}methyl sulfamate]
- inhibition at 0.111 µM (Concentration 0.111 μM): 97%
- IC50 (class symbols A/B/C): < 10 nM

SMILES: CC(C)c1ccccc1OCc1csc(C(=O)c2cncnc2N[C@@H]2C[C@H](COS(N)(=O)=O)[C@@H](O)C2)c1 [I-191, [(1R,2S,4R)-2-hydroxy-4-{[5-({4-[(2-isopropylphenoxy)methyl]-2-thienyl}carbonyl)pyrimidin-4-yl]amino}cyclopentyl]methyl sulfamate]
- inhibition at 0.111 µM (Concentration 0.111 μM): 72%
- IC50 (class symbols A/B/C): 10 to 100 nM

SMILES: NS(=O)(=O)OC[C@H]1C[C@@H](Nc2ncncc2C(=O)c2cc(Cc3cccc(Cl)c3Cl)cs2)C[C@@H]1O [I-155, {(1R,2S,4R)-4-[(5-{[4-(2,3-dichlorobenzyl)-2-thienyl]carbonyl}pyrimidin-4-yl)amino]-2-hydroxycyclopentyl}methyl sulfamate]
- inhibition at 0.111 µM (Concentration 0.111 μM): 92%
- IC50 (class symbols A/B/C): < 10 nM

SMILES: NS(=O)(=O)OC[C@H]1C[C@@H](Nc2ncncc2C(=O)c2cc([C@@H]3NCc4ccc(Cl)cc43)c(Cl)s2)C[C@@H]1O (single isomer, unassigned) [I-262a, [(1R,2S,4R)-4-{[5-({5-chloro-4-[(1R)-6-chloro-2,3-dihydro-1H-isoindol-1-yl]-2-thienyl}carbonyl)pyrimidin-4-yl]amino}-2-hydroxycyclopentyl]methyl sulfamate or [(1R,2S,4R)-4-{[5-({5-chloro-4-[(1S)-6-chloro-2,3-dihydro-1H-isoindol-1-yl]-2-thienyl}carbonyl)pyrimidin-4-yl]amino}-2-hydroxycyclopentyl]methyl sulfamate]
- Percent Inhibition (Concentration 0.111 μM): 98
- IC50 (class symbols A/B/C): < 10 nM

SMILES: Cc1sc(C(=O)c2cncnc2N[C@@H]2C[C@H](COS(N)(=O)=O)[C@@H](OC(=O)c3cccc(COP(=O)(O)O)c3)C2)cc1[C@@H]1OCCc2ccc(Cl)cc21 [I-345, (1S,2R,4R)-4-{[5-({4-[(1R)-7-chloro-3,4-dihydro-1H-isochromen-1-yl]-5-methyl-2-thienyl}carbonyl)pyrimidin-4-yl]amino}-2-[(sulfamoyloxy)methyl]cyclopentyl 3-[(phosphonooxy)methyl]benzoate]
- inhibition at 0.111 µM [1]: 5%
- IC50 [2]: 100 to 1000 nM

SMILES: Cc1sc(C(=O)c2cncnc2N[C@@H]2C[C@H](COS(N)(=O)=O)[C@@H](O)C2)nc1[C@H](O)c1cccc(Cl)c1 (single isomer, unassigned) [I-355a, [(1R,2S,4R)-4-{[5-({4-[(R)-(3-chlorophenyl)(hydroxy)methyl]-5-methyl-1,3-thiazol-2-yl}carbonyl)pyrimidin-4-yl]amino}-2-hydroxycyclopentyl]methyl sulfamate or [(1R,2S,4R)-4-{[5-({4-[(S)-(3-chlorophenyl)(hydroxy)methyl]-5-methyl-1,3-thiazol-2-yl}carbonyl)pyrimidin-4-yl]amino}-2-hydroxycyclopentyl]methyl sulfamate]
- Percent Inhibition [1]: 98%
- IC50 [2]: < 10 nM

SMILES: NS(=O)(=O)OC[C@H]1C[C@@H](Nc2ncncc2C(=O)c2cc(Cl)c([C@H](O)c3cccc(Cl)c3)s2)C[C@@H]1O (single isomer, unassigned) [I-151a, [(1R,2S,4R)-4-{[5-({4-chloro-5-[(R)-(3-chlorophenyl)(hydroxy)methyl]-2-thienyl}carbonyl)pyrimidin-4-yl]amino}-2-hydroxycyclopentyl]methyl sulfamate or [(1R,2S,4R)-4-{[5-({4-chloro-5-[(S)-(3-chlorophenyl)(hydroxy)methyl]-2-thienyl}carbonyl)pyrimidin-4-yl]amino}-2-hydroxycyclopentyl]methyl sulfamate]
- Percent Inhibition (Concentration 0.111 μM): 80
- IC50 (class symbols A/B/C): 10 to 100 nM
